From patent publication US20210047324A1 (Aptinyx Inc., priority 2018, published 2021) come the findings set out here.

Data set [1] is described as follows: IV pharmacokinetics in Sprague Dawley rats. Particulars: Sprague-Dawley, rat, in vivo, iv, 2 mg/kg, normal saline. The format is in vivo. The procedure: Sprague Dawley rats were dosed intravenously using a normal saline formulation containing 2 mg/kg of the compounds identified in the below table. The table below summarizes the results of the IV pharmacokinetics.

A short description of data set [2]: Oral pharmacokinetics in Sprague Dawley rats (plasma, brain, CSF). The format is in vivo. Particulars: rat, 10 mg/kg. The procedure: In another experiment, Sprague Dawley rats were dosed per os (oral gavage) using a normal saline formulation containing 10 mg/kg of the compounds identified in the table below. Plasma, brain, and CSF samples were analyzed at various time points over a 24 hour period. The table below summarizes the results of the oral pharmacokinetics, where the first three values (Tmax, Cmax and AUClast) are plasma values.

A word on the AUC(0-t): it is exposure summed from dosing to a finite time, without extrapolation to infinity. Low readings indicate low exposure, high ones high exposure. In general, clearance refers to the rate of elimination divided by the concentration. Lower therefore signals a low capacity for elimination. The half-life is the time in which the quantity being followed falls by half. What is called Cmax is the peak of the concentration-time curve. The term Tmax denotes the time at which the peak concentration occurs. Broadly, the bioavailability is the share of a dose that reaches the circulation, judged against a reference dose that is usually intravenous. Low readings indicate poor availability, high ones good availability. In data set [1], `O=C1NCC=CC[C@]12CCCN2` [GA, (R)-1,7-diazaspiro[4.6]undec-9-en-6-one] gave an exposure AUC(0-t) of 1250 ng·h/mL, a clearance of 27 mL/min/kg and a half-life of 3.6 h. Moreover, the Cmax in data set [1] (read-out: Cmax) is 1470 ng/mL. For the same molecule, the Vd in data set [1] (read-out: Vss) came to 3.92 L/kg. In addition, the Tmax in data set [2] (Sprague-Dawley, po, per os, plasma, read-out: Tmax) turned out to be 0.5 h. Moreover, in data set [2] (Sprague-Dawley, plasma, po, per os), the exposure AUC(0-t) was found to be 3860 ng·h/mL. In data set [2] (Sprague-Dawley, plasma, po, per os 10 mg/kg), the bioavailability was 62%. Further, the highest concentration (Cmax) in data set [2] (Sprague-Dawley, plasma, po, per os, plasma, read-out: Cmax) was 1960 ng/mL. Further, the “CSF Cmax” value in data set [2] (per os, CSF) is given as 551.3 ng/mL. In data set [2] (per os, brain), the “Brain Cmax” value is reported as 3963.2 ng/mL.
